Experimental data from patent US20230248695A1, “COMBINATIONS OF CANCER THERAPEUTICS” (Merck Patent GmbH, priority 2020, published 2023).
“Also recorded” adds a separate entry of the source.

What was measured:
[1] = test system: RCC patient derived xenografts (PDX); assay: In vivo efficacy in sixteen RCC patient derived tumor xenograft models (PDX); design: species or system female NMRI nu/nu mice (human tumor xenografts); details: 16 s.c. RCC PDX models, n = 5 per group; p.o. up to 70 days; Compound A 100 mg/kg QD, axitinib 4 mg/kg BID, cabozantinib 10 mg/kg QD; progression = RTV 173%
Procedure: All experiments and protocols were approved by animal welfare body and local authorities, and were conducted according to all applicable international, national and local laws and guidelines. Only animals with unobjectionable health were selected to enter testing procedures. The animals (female NMRI nu/nu mice (NMRI-Foxn1^nu); Envigo RMS GmbH, Netherlands) were delivered at the age of four to six weeks and were used for experiments after at least one week of acclimatization. Animals were arbitrarily numbered during tumor implantation using radio frequency identification transponders. Each cage was labeled with a record card indicating all relevant experimental details.
The tumor xenografts were derived from surgical specimens from human cancer patients. Following excision at surgery, tumor pieces were subcutaneously implanted into immunodeficient mice and are therefore referred to as patient-derived tumor xenografts (PDX). Establishment and characterization of the PDXs was performed following their primary implantation into immunodeficient mice (passage 1). The tumor xenografts were passaged until establishment of a stable growth pattern.
Axitinib: A dosing solution of 0.4 mg/ml for dosing at 4 mg/kg/dose was prepared daily by dissolving 6.4 mg dry matter in 16 ml vehicle and stirring for at least 30 min. If necessary, the solution was sonicated for 2 min.
Cabozantinib: A dosing solution of 1 mg/ml for dosing at 10 mg/kg/dose was prepared directly before administration by slowly adding 0.2 ml 100% propylene glycol to 12 mg cabozantinib. It was stirred vigorously on a magnetic stirrer until a fine suspension with clumps formed, followed by vortexing briefly for 15-20 s. A further 3.4 ml propylene glycol was added and the stirring and vortexing steps were repeated. Then 600 µl 100% Tween 80 was added while stirring continuously followed by vortexing briefly for 15-20 s. The solution was then sonicated for 10 min and 7.8 ml D5W was added while stirring slowly. At this stage the solution was clear with lots of air bubbles. Care was taken to exclude these when drawing the suspension into a syringe for administration of therapy.
The resulting white suspension was stirred for two hours on a magnetic stirrer with a hot plate (Phoenix Instruments, model RSM-10HS) at 50° C. The suspension was brought to room temperature and mixed well each time before transferring to a syringe for dosing.
Tumor cell inoculation: Tumor fragments were obtained from xenografts in serial passage in nude mice. After removal from donor mice, tumors were cut into fragments (3-4 mm edge length) and placed in PBS containing 10% penicillin/streptomycin. Recipient animals were anesthetized by inhalation of isoflurane and received unilateral or bilateral tumor implants subcutaneously in the flank.
Randomization: Animals and tumor implants were monitored daily until solid tumor growth was detectable in a sufficient number of animals. At randomization, the volume of growing tumors was determined. […] Animals not used for experiments where available were used as satellite animals for PD sampling. The day of randomization was designated as day 0 of the experiment. The time from implantation to randomization at a standard tumor volume is expressed in days as “Induction time (IT)”. Induction times of tumors are routinely recorded, and a median IT is calculated for characterization purposes.
Tumor measurements and calculations: Tumor length (L) and width (W) were measured twice weekly by calipers. The tumor volume was calculated using the formula L×W^2/2. Relative volumes of individual tumors (individual RTVs) for Day x were calculated by dividing the absolute individual tumor volume on Day x (Tx) by the absolute individual tumor volume of the same tumor on the day of randomization (Tr) multiplied by 100%.

[2] = clinical trials; cited from earlier work

Compound	tumor growth / tumor progression under monotherapy treatment [1]	neurotoxicity [2]
O=C(NCc1cc(F)cc(F)c1)[C@@]1(O)CCN(c2ccc3[nH]ccc3c2)C1=O [Compound A, (S)-3-Hydroxy-1-(1H-indol-5-yl)-2-oxo-pyrrolidine-3-carboxylic acid 3,5-difluoro-benzylamide]	progressed under monotherapy treatment; also recorded: did not strongly inhibit tumor growth, and tumors progressed under treatment	
CNC(=O)c1ccccc1Sc1ccc2c(/C=C/c3ccccn3)n[nH]c2c1 [axitinib, N-methyl-2-({3-[(1E)-2-(pyridin-2-yl)ethenyl]-1H-indazol-6-yl}sulfanyl)benzamide]	progressed under monotherapy treatment; also recorded: did not strongly inhibit tumor growth, and tumors progressed under treatment	
COc1cc2nccc(Oc3ccc(NC(=O)C4(C(=O)Nc5ccc(F)cc5)CC4)cc3)c2cc1OC [cabozantinib, N-{4-[(6,7-dimethoxyquinolin-4-yl)oxy]phenyl}-N′-(4-fluorophenyl)cyclopropane-1,1-dicarboxamide]	progressed under monotherapy treatment; also recorded: did not strongly inhibit tumor growth, and tumors progressed under treatment	
CO[C@@H]1[C@H](OC(=O)/C=C/C=C/C=C/C=C/C(=O)O)CC[C@]2(CO2)[C@H]1[C@@]1(C)O[C@@H]1CC=C(C)C [fumagillin]		pronounced neurotoxicity
